According to US5232913A, “Antihepatopathic composition” (Senju Pharmaceutical Co., Ltd., priority 1990, dated 1993):
Where two headings read alike, the source gives them in different places.

System: acetaminophen-induced hepatic impairment
Experiment: Effect on acetaminophen-induced hepatic impairment
Format: in vivo, rat
Details: Male SD rats; for inhibitory effect on acetaminophen-induced hepatic impairment (antihepatopathic effect, in words) / inhibition at 500 µmol/kg / s-GOT % inhibition / s-GPT % inhibition: 0.5 mmole/kg orally; for inhibitory effect on acetaminophen-induced hepatic impairment (antihepatopathic effect, in words): acetaminophen 300 mg/kg i.p.; for s-GOT / s-GPT: test substance 0.5 mmole/kg orally, one hour later acetaminophen 300 mg/kg i.p., mean ± S.E., n = 7-10; for s-GOT / s-GPT / inhibition at 500 µmol/kg / s-GOT % inhibition / s-GPT % inhibition: serum after 24 hours; for inhibition at 500 µmol/kg: Rattus norvegicus; for inhibition at 500 µmol/kg / s-GOT % inhibition / s-GPT % inhibition: one hour before acetaminophen 300 mg/kg i.p., versus physiological saline control
Method: Method; Male SD rats (body weights ca. 180 g) purchased form Japan SLC were used. The test substance was orally administered (0.5 mmole/kg) and one hour later 300 mg/kg of acetaminophen was intraperitoneally administered. After 24 hours, blood was drawn from the abdominal aorta and the serum was separated. Using this serum, s-GOT and GPT were determined.

| Structure (SMILES) | inhibitory effect on acetaminophen-induced hepatic impairment (antihepatopathic effect, in words) | s-GOT | s-GPT | inhibition at 500 µmol/kg (read-out: s-GOT % inhibition) | inhibition at 500 µmol/kg (read-out: s-GPT % inhibition) | s-GOT % inhibition | s-GPT % inhibition |
| --- | --- | --- | --- | --- | --- | --- | --- |
| CC(CSC[C@H](NC(=O)CC[C@H](N)C(=O)O)C(=O)NCC(=O)O)C(=O)O (stereo partly drawn) [compound 1, S-(2-carboxypropyl)glutathione] | significant antihepatopathic effects | 1259 ± 424 IU/l | 337 ± 117 IU/l | 76.1% | 83.6% |  |  |
| CCOC(=O)C(C)CSC[C@H](NC(=O)CC[C@H](N)C(=O)O)C(=O)NCC(=O)O (stereo partly drawn) [compound 2, S-(2-carbethoxypropyl)glutathione] | significant antihepatopathic effects | 841 ± 354 IU/l | 195 ± 81 IU/l | 84% | 90.5% |  |  |
| N[C@@H](CCC(=O)N[C@@H](CSCCC(=O)O)C(=O)NCC(=O)O)C(=O)O [compound 3, S-(2-Carboxyethyl)glutathione] | significant antihepatopathic effects | 1968 ± 626 IU/l | 530 ± 180 IU/l | 62.6% | 74.3% |  |  |
| CCOC(=O)CCSC[C@H](NC(=O)CC[C@H](N)C(=O)O)C(=O)NCC(=O)O [compound 4, S-(2-Carbethoxyethyl)glutathione] | significant antihepatopathic effects | 1935 ± 530 IU/l | 598 ± 226 IU/l | 63.3% | 71% |  |  |
| CC(C)COC(=O)C(C)CSC[C@H](NC(=O)CC[C@H](N)C(=O)O)C(=O)NCC(=O)O (stereo partly drawn) [compound 5, S-(2-Methyl-2-carboisobutoxyethyl)glutathione] |  | 2972 ± 803 IU/l | 1384 ± 417 IU/l |  |  | 43.6% | 32.8% |
| CC(CSC[C@H](NC(=O)CC[C@H](N)C(=O)O)C(=O)NCC(=O)O)C(=O)OCc1ccccc1 (stereo partly drawn) [compound 6, S-[2-Methyl-2-carbobenzoxyethyl]glutathione] |  | 2968 ± 824 IU/l | 1384 ± 421 IU/l | 43.7% | 32.8% |  |  |
| CCOC(=O)C(C)CSCC(NC(=O)CCC(N)C(=O)O)C(=O)NCC(=O)OC(C)C (stereo not drawn) [compound 7, S-(2-Methyl-2-carbethoxyethyl)glutathione isopropyl ester] | significant antihepatopathic effects | 1570 ± 511 IU/l | 529 ± 168 IU/l |  |  | 70.2% | 74.3% |
| CC(C)COC(=O)C(C)CSCC(NC(=O)CCC(N)C(=O)O)C(=O)NCC(=O)OC(C)C (stereo not drawn) [compound 8, S-(2-Methyl-2-carbiosobutoxyethyl)glutathione isopropyl ester] | significant antihepatopathic effects | 163 ± 89 IU/l | 52 ± 29 IU/l |  |  | 96.9% | 97.5% |
| CC(C)OC(=O)CC(C)SC[C@H](NC(=O)CC[C@H](N)C(=O)O)C(=O)NCC(=O)O (stereo partly drawn) [compound 9, S-(1-Methyl-2-carboisopropoxyethyl)glutathione] | significant antihepatopathic effects | 171 ± 71 IU/l | 43 ± 21 IU/l | 96.8% | 97.9% |  |  |
